ChEMBL document CHEMBL1157574 (J Med Chem, 2010)

What was measured:
[1] = biological target: T1, Aromatase (Homo sapiens, UniProt P11511)
T1 sequence (P11511 whole entry): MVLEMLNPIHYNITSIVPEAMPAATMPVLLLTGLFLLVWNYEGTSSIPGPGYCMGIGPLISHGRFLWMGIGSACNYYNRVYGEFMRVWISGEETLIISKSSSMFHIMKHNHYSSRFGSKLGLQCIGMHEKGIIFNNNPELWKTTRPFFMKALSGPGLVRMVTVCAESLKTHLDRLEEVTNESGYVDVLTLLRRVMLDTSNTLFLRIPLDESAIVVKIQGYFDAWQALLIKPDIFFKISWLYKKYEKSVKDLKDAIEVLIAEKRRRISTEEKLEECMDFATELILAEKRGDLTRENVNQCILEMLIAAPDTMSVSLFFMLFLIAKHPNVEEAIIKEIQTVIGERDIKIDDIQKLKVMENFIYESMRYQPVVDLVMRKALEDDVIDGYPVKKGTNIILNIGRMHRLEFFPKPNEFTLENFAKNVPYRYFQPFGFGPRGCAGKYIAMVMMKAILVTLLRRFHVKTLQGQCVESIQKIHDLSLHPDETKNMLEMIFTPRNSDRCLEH
Description: Inhibition of aromatase in human JEG3 cells by scintillation spectrometry

[2] = test system: Rattus norvegicus; assay: Inhibition of aromatase in PMSG-pretreated Wistar rat at 1 mg/kg, po administered after 3 days of PMSG challenge by radioimmunoassay
[3] = test system: Rattus norvegicus; assay: Inhibition of aromatase in Wistar rat assessed as inhibition of PMSG-induced plasma E2 level at 1 mg/kg, po administered after 3 days of PMSG challenge by radioimmunoassay; assay type: functional
[4] = test system: Rattus norvegicus; assay: Inhibition of steroid sulfatase in PMSG-pretreated Wistar rat at 1 mg/kg, po administered after 3 days of PMSG challenge by liquid scintillation spectrometry; assay type: functional
[5] = biological target: T1, Aromatase; assay: Inhibition of aromatase in human JEG3 cells at 0.1 uM by scintillation spectrometry; assay type: cell-based; details: JEG-3, human
[6] = biological target: T1, Aromatase; assay: Inhibition of aromatase in human JEG3 cells at 1 uM by scintillation spectrometry; assay type: cell-based, JEG-3; details: for inhibition (INH): human, jeg-3, 1 µM
[7] = biological target: T2, Steryl-sulfatase (Homo sapiens, UniProt P08842); assay: Inhibition of steroid sulfatase in human JEG3 cells by scintillation spectrometry; assay type: cell-based, JEG-3
T2 sequence (P08842 whole entry): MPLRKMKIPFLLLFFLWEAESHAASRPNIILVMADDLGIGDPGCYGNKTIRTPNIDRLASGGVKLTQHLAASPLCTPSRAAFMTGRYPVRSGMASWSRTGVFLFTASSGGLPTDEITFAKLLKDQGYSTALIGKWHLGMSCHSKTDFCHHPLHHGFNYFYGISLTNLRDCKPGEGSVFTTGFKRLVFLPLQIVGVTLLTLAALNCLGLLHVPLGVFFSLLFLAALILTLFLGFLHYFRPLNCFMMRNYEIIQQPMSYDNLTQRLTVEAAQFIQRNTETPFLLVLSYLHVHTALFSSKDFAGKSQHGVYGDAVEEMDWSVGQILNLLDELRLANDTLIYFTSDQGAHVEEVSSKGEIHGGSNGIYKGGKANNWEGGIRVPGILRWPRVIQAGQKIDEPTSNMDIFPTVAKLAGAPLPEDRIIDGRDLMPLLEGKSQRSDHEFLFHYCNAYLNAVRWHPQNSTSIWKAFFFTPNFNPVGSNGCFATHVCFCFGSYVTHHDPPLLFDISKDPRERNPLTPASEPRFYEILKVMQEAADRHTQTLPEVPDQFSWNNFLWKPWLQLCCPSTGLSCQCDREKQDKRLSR

[8] = biological target: T1, Aromatase; assay: Inhibition of aromatase in human JEG3 cells at 10 uM by scintillation spectrometry; assay type: cell-based; details: JEG-3, human
[9] = test system: Rattus norvegicus; assay: Estrogenic toxicity in Wistar rat assessed as increase in uterine weight at 10 mg/kg, po for 4 days; assay type: organism-based; set-up: dose 10 mg/kg, route oral; details: in vivo, 96 h
[10] = test system: Rattus norvegicus; assay: Inhibition of steroid sulfatase in PMSG-pretreated Wistar rat liver at 0.1 mg/kg, po administered after 3 days of PMSG challenge by liquid scintillation spectrometry
[11] = test system: Rattus norvegicus; assay: Inhibition of aromatase in PMSG-pretreated Wistar rat plasma at 0.1 mg/kg, po administered after 3 days of PMSG challenge by radioimmunoassay; assay type: functional
[12] = test system: Rattus norvegicus; assay: Inhibition of aromatase in Wistar rat assessed as inhibition of PMSG-induced plasma E2 level at 0.1 mg/kg, po administered after 3 days of PMSG challenge by radioimmunoassay; assay type: functional
[13] = biological target: T3, Steryl-sulfatase (Homo sapiens) (UniProt P08842); assay: Inhibition of steroid sulfatase in human JEG3 cells at 10 uM by scintillation spectrometry; assay type: cell-based; details: JEG-3
T3 sequence (whole entry): T2 sequence (P08842 whole entry)

SMILES | IC50 [1] | IC50 [7] | further results
CC(C)(C#N)c1cc(Cn2cncn2)cc(-c2ccc(O)cc2)c1 | 6 nM | – | –
N#Cc1ccc(Cn2cncn2)cc1-c1ccc(O)cc1 | 0.2 nM | – | inhibition in vivo at 1 mg/kg [2]: 72%; plasma estradiol (E2) level [3]: 94 pg/mL; inhibition in vivo at 1 mg/kg [4]: 10%
Oc1ccc(-c2cccc(Cn3cncn3)c2)cc1 | – | – | inhibition at 0.1 µM [5]: 24.6%; inhibition (INH) [6]: 79%
CN(C)S(=O)(=O)Oc1ccc(-c2cc(Cn3cncn3)ccc2C#N)cc1Cl | 2.4 nM | > 10000 nM | –
N#Cc1ccc(-c2ccc(OS(N)(=O)=O)cc2)c(C#N)c1 | – | 16.3 nM | inhibition at 10 µM [8]: 47%
N#Cc1ccc(Cn2cncn2)cc1-c1ccc(OS(N)(=O)=O)cc1 | 2 nM | 35 nM | inhibition in vivo at 1 mg/kg [2]: 63%; plasma estradiol (E2) level [3]: 124 pg/mL; inhibition in vivo at 1 mg/kg [4]: 77%
N#Cc1ccc(Cn2cncn2)c(-c2ccccc2)c1 | 1.7 nM | – | –
N#Cc1cc(Cn2cncn2)ccc1-c1ccc(OS(N)(=O)=O)cc1 | 284 nM | 28.6 nM | –
N#Cc1ccc(Cn2cncn2)cc1-c1ccc(Cl)c(O)c1 | 0.22 nM | – | –
CC(C)(C#N)c1cc(Cn2cncn2)cc(-c2ccc(O)c(Cl)c2)c1 | 0.1 nM | – | –
N#Cc1cc(Cn2cncn2)cc(-c2ccc(F)cc2)c1 | 19 nM | – | –
N#Cc1ccc(-c2ccc(OS(N)(=O)=O)c(Cl)c2)cc1Cn1cncn1 | 146 nM | 32.6 nM | –
N#Cc1cc(Cn2cncn2)cc(-c2ccccc2)c1 | 29.3 nM | – | –
N#Cc1ccc(-c2cc(C#N)cc(Cn3cncn3)c2)cc1 | 52 nM | – | –
N#Cc1ccc(N(Cc2ccc(OS(N)(=O)=O)c(Br)c2)n2cnnc2)cc1 | – | – | Activity [9]: Non-toxic
N#Cc1ccc(Cn2cncn2)c(-c2ccc(OS(N)(=O)=O)c(Cl)c2)c1 | 1.9 nM | > 10000 nM | –
c1ccc(-c2cccc(Cn3cncn3)c2)cc1 | 210 nM | – | –
Oc1ccc(-c2cccc(Cn3cncn3)c2)cc1Cl | – | – | inhibition at 0.1 µM [5]: 36.6%; inhibition (INH) [6]: 85.3%
N#Cc1ccc(-c2ccc(O)cc2)cc1Cn1cncn1 | – | – | inhibition at 0.1 µM [5]: 35.1%; inhibition (INH) [6]: 76.4%
N#Cc1ccc(-c2ccc(OS(N)(=O)=O)cc2)cc1Cn1cncn1 | 176 nM | 140 nM | –
N#Cc1cc(Cn2cncn2)cc(-c2ccc(O)cc2)c1 | 112 nM | – | –
N#Cc1cc(Cn2cncn2)cc(-c2ccc(OS(N)(=O)=O)c(Cl)c2)c1 | 80 nM | 6330 nM | –
N#Cc1ccc(-c2ccccc2)cc1Cn1cncn1 | – | – | inhibition at 0.1 µM [5]: 23.9%; inhibition (INH) [6]: 68.8%

SMILES | IC50 [1] | IC50 [7] | further results
N#Cc1cc(Cn2cncn2)ccc1-c1ccc(O)c(Cl)c1 | 380 nM | – | –
N#Cc1ccc(Cn2cncn2)cc1-c1ccc(OS(N)(=O)=O)c(Cl)c1 | – | 5.5 nM | inhibition in vivo at 1 mg/kg [2]: 60%; plasma estradiol (E2) level [3]: 132 pg/mL; Activity [9]: Non-toxic; inhibition in vivo at 1 mg/kg [4]: 92%
N#Cc1ccc(Cn2cncn2)cc1-c1ccc(Cl)c(OS(N)(=O)=O)c1 | 0.35 nM | > 10000 nM | –
CC(C)(C#N)c1cc(Cn2cncn2)cc(-c2ccccc2)c1 | 0.5 nM | – | –
N#Cc1ccc(Cn2cncn2)cc1-c1ccc(O)c(Cl)c1 | – | – | inhibition in vivo at 1 mg/kg [2]: 11%; plasma estradiol (E2) level [3]: 297 pg/mL; inhibition in vivo at 1 mg/kg [4]: 5%
N#Cc1cc(Cn2cncn2)cc(-c2ccc(O)c(Cl)c2)c1 | 24 nM | – | –
N#Cc1ccc(Cn2cncn2)c(-c2ccc(O)c(Cl)c2)c1 | 0.8 nM | – | –
N#Cc1ccc(C(c2ccc(C#N)cc2)n2cncn2)cc1 [LETROZOLE] | – | – | inhibition in vivo at 0.1 mg/kg [10]: 0%; inhibition in vivo at 0.1 mg/kg [11]: 85%; Activity [12]: 49 pg/mL
NS(=O)(=O)Oc1ccc(-c2cccc(Cn3cncn3)c2)cc1 | 275 nM | 5500 nM | –
CCCN1C(=O)CC2C3CCc4cc(OS(N)(=O)=O)ccc4C3CC[C@]2(C)C1=O (stereo partly specified) | – | – | inhibition in vivo at 1 mg/kg [4]: 99%
N#Cc1ccc(Cn2cncn2)cc1-c1cccc(Cl)c1 | 0.22 nM | – | –
CN(C)S(=O)(=O)Oc1ccc(-c2cc(Cn3cncn3)ccc2C#N)cc1 | 0.5 nM | > 10000 nM | –
N#Cc1ccc(-c2cccc(OS(N)(=O)=O)c2)cc1Cn1cncn1 | – | > 10000 nM | inhibition at 1 µM ([6]; JEG-3, human): 63.4%
N#Cc1cc(Cn2cncn2)cc(-c2ccc(OS(N)(=O)=O)cc2)c1 | 280 nM | > 10000 nM | –
CC(C)(C#N)c1cc(Cn2cncn2)cc(-c2ccc(OS(N)(=O)=O)c(Cl)c2)c1 | 0.3 nM | – | inhibition [13]: 68.2%
N#Cc1ccc(-c2cccc(O)c2)cc1Cn1cncn1 | 14.4 nM | – | –
NS(=O)(=O)Oc1ccc(-c2cccc(Cn3cncn3)c2)cc1Cl | 70 nM | 160 nM | –
N#Cc1ccc(-c2ccc(O)c(Cl)c2)cc1Cn1cncn1 | 74 nM | – | –
N#Cc1cc(Cn2cncn2)ccc1-c1ccc(O)cc1 | 920 nM | – | –
N#Cc1ccc(Cn2cncn2)cc1-c1ccccc1 | 0.2 nM | – | –
N#Cc1cc(Cn2cncn2)ccc1-c1ccccc1 | 4.6 nM | – | –
N#Cc1cc(Cn2cncn2)ccc1-c1ccc(OS(N)(=O)=O)c(Cl)c1 | 571 nM | 29 nM | –
CC(C)(C#N)c1cc(Cn2cncn2)cc(-c2ccc(OS(N)(=O)=O)cc2)c1 | 17.5 nM | > 10000 nM | –
